Measured values published in patent publication US20200368247A1, “CENICRIVIROC FOR THE TREATMENT OF FIBROSIS” (Tobira Therapeutics, Inc., priority 2014, published 2020).

Columns and labels:
CCR2 = target: T1, CCR2 (Homo sapiens, UniProt P41597); assay: CCR2 receptor occupancy / MCP-1-induced CCR2 internalization in PBMCs, flow cytometry; format: cell-based
T1 construct: endogenous in cells; host or cells: monocytes within PBMCs from HIV+ and HIV- subjects
T1 sequence (P41597 1-360 isoform P41597-2): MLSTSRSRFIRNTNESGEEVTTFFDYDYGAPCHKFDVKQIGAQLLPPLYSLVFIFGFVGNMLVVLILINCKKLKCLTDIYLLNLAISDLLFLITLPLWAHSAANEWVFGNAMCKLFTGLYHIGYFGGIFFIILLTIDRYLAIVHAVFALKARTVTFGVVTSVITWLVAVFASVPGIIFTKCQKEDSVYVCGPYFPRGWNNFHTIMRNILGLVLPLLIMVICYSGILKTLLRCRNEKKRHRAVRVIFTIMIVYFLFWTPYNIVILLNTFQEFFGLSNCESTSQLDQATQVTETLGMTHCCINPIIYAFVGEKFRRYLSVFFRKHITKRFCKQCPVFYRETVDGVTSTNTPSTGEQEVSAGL
Experimental: (§1) The capacity of each drug to inhibit CCR5 or CCR2 internalization was evaluated. Cell-surface expression of CCR5 and CCR2 was assessed by flow cytometry, and fluorescence values were converted into molecules of equivalent soluble fluorescence (MESF).

CCR5 [1] = target: T2, CCR5 (Homo sapiens, UniProt P51681); assay: Inhibition of ligand binding to CCR5-expressing CHO cells
CCR5 [2] = target: T2, CCR5; assay: CCR5 receptor occupancy / RANTES-induced CCR5 internalization in PBMCs, flow cytometry; format: cell-based; conditions: at saturating concentration
Experimental: as §1

HIV-1 BaL = assay: PM-1 cells exposed to HIV-1 BaL: virus in culture fluids (qRT-PCR, p24) and intracellular strong-stop DNA; format: cell-based; conditions: 4 hrs
Description: Cells. PM-1 cells that express CD4, CCR5, and CXCR4 were maintained in RPMI-1640 medium containing 10% fetal bovine serum (R10 medium) at 37 C, 5% CO2. 293T cells used for transfection were maintained in DMEM at 10% FBS, L-glutamine, and antibiotics (D10 medium) at 37 C, 5% CO2. Virus Stocks. HIV-1 BaL virus was produced by transfecting 293T cells with the plasmid pWT/BaL. Lipofectamine 2000 was used as a transfection agent. Culture supernatants were collected at 48 hrs post-transfection, filtered through a 0.45 μm pore filter, and treated with 50 units of benzonase per ml of virus stock for 20 minutes at 37 C to remove contaminating plasmid DNA. […]
Both drugs were incubated with PM-1 cells for 1 hr at 37 C prior to the addition of virus. […] Viral adsorption was measured in the no-drug controls, whereby 500 ng of p24 Ag of HIV-1 Bal were added per 5×10^5 PM-1 cells that were pre-incubated at 37 C for 1 hr in the absence of drug treatment. […] Supernatant viral loads were measured using quantitative real-time reverse transcription PCR (qRT-PCR) with the primers US1SSF (5′-ΔΔ[…]-3′), US1SSR (5′-[…]-3′) and US1SS probe (5′-(FAM) […]) and the Invitrogen qRT-PCR Supermix Kit. […] RNA copy number was quantified by use of 10-fold serial dilutions of pBaL/wt to generate standard curves for each assay and calibrated against samples with known copy numbers from previous studies. […]

T2 sequence (P51681 whole entry): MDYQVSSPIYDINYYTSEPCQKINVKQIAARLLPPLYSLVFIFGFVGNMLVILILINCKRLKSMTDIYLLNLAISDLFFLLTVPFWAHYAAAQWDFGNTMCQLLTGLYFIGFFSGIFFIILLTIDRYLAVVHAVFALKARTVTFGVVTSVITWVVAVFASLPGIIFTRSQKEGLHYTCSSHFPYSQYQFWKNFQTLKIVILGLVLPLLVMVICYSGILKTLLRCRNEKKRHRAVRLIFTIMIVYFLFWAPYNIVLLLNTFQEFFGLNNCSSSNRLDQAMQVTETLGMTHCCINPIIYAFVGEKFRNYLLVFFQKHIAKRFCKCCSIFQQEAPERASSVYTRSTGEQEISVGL

## CSc1ccc(C(=O)N[C@@H]2CCCC[C@@H]2NC(=O)CNC(=O)c2cc(C(F)(F)F)ccc2NC(=O)NC(C)C)cc1 [BMS-22, reference compound]
CCR2; CCR2, average
  concentration required to reach >80% receptor occupancy: 18 nM
CCR2; in the absence of MCP-1, monocytes
  CCR2 cell-surface expression: slightly increased

## CCCCOCCOc1ccc(-c2ccc3c(c2)C=C(C(=O)Nc2ccc(SC)cc2)CCCN3CC(C)C)cc1 [M-II]
CCR5 [1]; CHO cells
  IC50, inhibition of binding of RANTES to CCR5-expressing cells: no effect

## CCCCOCCOc1ccc(-c2ccc3c(c2)C=C(C(=O)Nc2ccc(S(=O)(=O)Cc4cncn4CCC)cc2)CCCN3CC(C)C)cc1 [M-I]
CCR5 [1]; RANTES binding to CCR5-expressing cells
  IC50 relative to the IC50 of CVC: approximately 2 fold

## Maraviroc [MVC]
CCR5 [2]; CD4+ T cells
  CCR5 receptor occupancy: ~86%
CCR5 [2]; CD8+ T cells
  CCR5 receptor occupancy: ~87%
HIV-1 BaL; CVC 20 nM, MVC 50 nM, baseline 506
  p24 antigen level in culture fluids: 520 ng/mL
HIV-1 BaL; PM-1 cells
  relative intracellular strong-stop HIV DNA level compared to no drug control: 0.02
